Results on 12 compounds are retold here after patent US20240158393A1, “PYRIDONE COMPOUNDS AND METHODS OF USE” (Exelixis, Inc., priority 2021, published 2024).

What all share (type): biochemical
One test concerns the target T1, Human Mer (Homo sapiens, UniProt Q12866).
T1 construct: Human Mer (residues R557-E882 with H628Q and R794A, 0.7 nM); purchased Eurofins Pharma Discovery Services UK Limited (KinaseProfiler service)
T1 sequence (Q12866 557-882 limits assumed): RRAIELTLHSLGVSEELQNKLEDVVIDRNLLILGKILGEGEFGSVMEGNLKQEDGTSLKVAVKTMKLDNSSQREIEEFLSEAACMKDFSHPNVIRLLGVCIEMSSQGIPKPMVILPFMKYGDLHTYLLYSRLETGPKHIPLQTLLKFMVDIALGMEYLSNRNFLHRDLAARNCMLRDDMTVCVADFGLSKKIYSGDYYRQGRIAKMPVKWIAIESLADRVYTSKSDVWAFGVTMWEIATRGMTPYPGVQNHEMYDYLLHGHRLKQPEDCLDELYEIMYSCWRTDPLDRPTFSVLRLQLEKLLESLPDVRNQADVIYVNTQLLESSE
The test can be described thus: Human Mer kinase assay (33P radiometric / HTRF KinEase). The note with it: protocols of Examples C-1 and/or C-2. The method, then:
(§1) Kinase activity and compound inhibition were investigated using the ^33P-Phosphoryl transfer radiometric kinase assay, performed using the KinaseProfiler™ service of Eurofins Pharma Discovery Services UK Limited. Dose-response experiments were performed using nine compound concentrations in a 96-well microtiter plate. For each assay, all compounds were prepared to a 50× final assay concentration (50 μM) in 100% DMSO, then diluted in a half-log series, with the final top concentration at 1 μM. This working stock of the compound was added to the assay well as the first component in the reaction, followed by the remaining components as detailed in the following assay protocols below. The positive control wells (100% kinase activity) contain all components of the reaction including 2% DMSO (control for solvent effects), except the compound of interest. Blank wells contain all components of the reaction, with the reference inhibitor, staurosporine. This reference compound was used to abolish kinase activity and generated the 0% kinase activity base-line. IC50 values were calculated by nonlinear regression analysis using the sigmoidal dose-response (variable slope) curve fit on XLFit version 5.3 (ID Business Solutions).
(§2) Kinase activity and compound inhibition were also investigated using the HTRF® KinEase assay (Cisbio Cat #62TKOPEB) per manufacturer's instructions. In short, compounds were delivered in 300 nL volumes at 10 different concentrations in DMSO (3% final) to empty 384-well assay plates (Corning cat #3824). A mixture of enzyme, 1 μM biotinylated peptide substrate, and buffer in 10 μL volume was added. The assay was started upon the addition of ATP (at Km). The 10 μL reaction was incubated at room temperature. The reaction was stopped upon the addition of detection buffer containing streptavidin-XL665 (5 μL) and TK antibody-Eu3+(5 μL). After a 60 min incubation at room temperature, the fluorescence at 665 nm and 620 nm was read on an Envision microplate reader (Perkin Elmer).
(§3) Kinase activity normalized to DMSO (100% activity) and reference compound at 1 μM and (0% activity) was calculated using the fluorescence ratio […]. IC50 values were calculated by nonlinear regression analysis using a 4-parameter logistic curve fit in ActivityBase XE (IDBS).
(§4) Example C-1: Human Mer (residues R557-E882 with H628Q and R794A, 0.7 nM) was incubated with 8 mM MOPS pH 7.0, 0.2 mM EDTA, 30 mM NaCl, 250 μM GGMEDIYFEFMGGKKK (SEQ ID NO: 2), 10 mM magnesium acetate, and 10 μM [γ-^33P-ATP]. The reaction was initiated by the addition of the Mg/ATP mix. After incubation for 40 minutes at room temperature, the reaction was stopped by the addition of phosphoric acid to a concentration of 0.5%. A reaction aliquot of 10 μL was then spotted onto a P30 filtermat and washed four times for 4 minutes in 0.425% phosphoric acid and once in methanol prior to drying and scintillation counting. Incorporated ^33P was measured using the Wallac Microbeta scintillation counter (Perkin Elmer).
Example C-2: Human MER (residues 528-999; CarnaBio, 1 ng/well) was also incubated with enzymatic buffer (Cisbio) supplemented with 5 mM MgCl2 and 1 mM DTT. The mixture was added to the pre-plated compounds. The reaction was initiated upon addition of ATP at Km (40 μM). The reaction was incubated at room temperature for 60 min and stopped upon the addition of SA-XL665 and TK-antibody both diluted in EDTA-containing kinase detection buffer (Cisbio). The kinase activity was calculated as stated above and the IC50 values were reported.
In general terms: In TR-FRET formats the signal depends on donor and acceptor labels being close together.

A further test has as its target T2, Human KDR (Homo sapiens, UniProt P35968).
T2 construct: Human KDR (residues K790-V1356, 55 nM); purchased Eurofins Pharma Discovery Services UK Limited (KinaseProfiler, B-1) and/or CarnaBio (B-2)
The test can be described thus: Human KDR kinase assay (33P radiometric / HTRF KinEase). The note with it: protocols of Examples B-1 and/or B-2. The method, then: as §1, §2, §3
as §4, with “B-1:” for “C-1:”, “KDR” for “Mer”, “K790-V1356, 55” for “R557-E882 with H628Q and R794A, 0.7”, “0.33 mg/mL myelin basic protein,” for “30 mM NaCl, 250 μM GGMEDIYFEFMGGKKK (SEQ ID NO: 2),”
Example B-2: Human KDR (residues 790-1356; CarnaBio, 0.1 ng/well) was also incubated with enzymatic buffer (Cisbio) supplemented with 5 mM MgCl2, 1 mM MnCl2, and 1 mM DTT. The mixture was added to the pre-plated compounds. The reaction was initiated upon addition of ATP at Km (4.0 μM). The reaction was incubated at room temperature for 40 min and stopped upon the addition of SA-XL665 and TK-antibody both diluted in EDTA-containing kinase detection buffer (Cisbio). The kinase activity was calculated as stated above and the IC50 values were reported.

The next test concerns the target T3, Human Met (Homo sapiens, UniProt P08581).
T3 construct: Human MET (residues 956-1390)
Put plainly: Human Met kinase assay (33P radiometric / HTRF KinEase). The note with it: protocols of Examples D-1 and/or D-2; read-out: c-Met IC50. The procedure: as §1, §2, §3
Example D-1: Human Met (residues R974-S1390 with A1209G and V1290L, 3.4 nM) was incubated with 8 mM MOPS pH 7.0, 0.2 mM EDTA, 250 μM KKKGQEEEYVFIE (SEQ ID NO:3), 1 mM sodium orthovanadate, 5 mM […], 10 mM magnesium acetate, and 10 μM [γ-^33P-ATP]. The reaction was initiated by the addition of the Mg/ATP mix. After incubation for 40 minutes at room temperature, the reaction was stopped by the addition of phosphoric acid to a concentration of 0.5%. A reaction aliquot of 10 μL was then spotted onto a P30 filtermat and washed four times for 4 minutes in 0.425% phosphoric acid and once in methanol prior to drying and scintillation counting. Incorporated ^33P was measured using the Wallac Microbeta scintillation counter (Perkin Elmer).
Example D-2: Human MET (residues 956-1390; CarnaBio, 0.1 ng/well) was also incubated with enzymatic buffer (Cisbio) supplemented with 5 mM MgCl2, 1 mM DTT and 1 mM MnCl2. The mixture was added to the pre-plated compounds. The reaction was initiated upon addition of ATP at Km (3.0 μM). The reaction was incubated at room temperature for 40 min and stopped upon the addition of SA-XL665 and TK-antibody both diluted in EDTA-containing kinase detection buffer (Cisbio). The kinase activity was calculated as stated above and the IC50 values were reported.

For orientation: IC50 means the concentration needed to halve the response being measured.

T3 sequence (P08581 974-1390 limits assumed): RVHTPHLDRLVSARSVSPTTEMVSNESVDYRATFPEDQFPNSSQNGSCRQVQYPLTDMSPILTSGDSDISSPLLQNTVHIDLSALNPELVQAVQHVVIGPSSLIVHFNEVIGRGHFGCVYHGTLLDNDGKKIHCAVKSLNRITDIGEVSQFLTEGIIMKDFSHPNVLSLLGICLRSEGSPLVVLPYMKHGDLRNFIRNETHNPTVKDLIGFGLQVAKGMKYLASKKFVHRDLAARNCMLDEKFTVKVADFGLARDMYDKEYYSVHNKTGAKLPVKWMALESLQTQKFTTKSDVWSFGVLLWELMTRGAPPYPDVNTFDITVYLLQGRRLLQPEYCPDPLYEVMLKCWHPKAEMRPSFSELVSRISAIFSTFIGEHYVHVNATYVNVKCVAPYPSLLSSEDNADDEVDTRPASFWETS
T2 sequence (P35968 790-1356): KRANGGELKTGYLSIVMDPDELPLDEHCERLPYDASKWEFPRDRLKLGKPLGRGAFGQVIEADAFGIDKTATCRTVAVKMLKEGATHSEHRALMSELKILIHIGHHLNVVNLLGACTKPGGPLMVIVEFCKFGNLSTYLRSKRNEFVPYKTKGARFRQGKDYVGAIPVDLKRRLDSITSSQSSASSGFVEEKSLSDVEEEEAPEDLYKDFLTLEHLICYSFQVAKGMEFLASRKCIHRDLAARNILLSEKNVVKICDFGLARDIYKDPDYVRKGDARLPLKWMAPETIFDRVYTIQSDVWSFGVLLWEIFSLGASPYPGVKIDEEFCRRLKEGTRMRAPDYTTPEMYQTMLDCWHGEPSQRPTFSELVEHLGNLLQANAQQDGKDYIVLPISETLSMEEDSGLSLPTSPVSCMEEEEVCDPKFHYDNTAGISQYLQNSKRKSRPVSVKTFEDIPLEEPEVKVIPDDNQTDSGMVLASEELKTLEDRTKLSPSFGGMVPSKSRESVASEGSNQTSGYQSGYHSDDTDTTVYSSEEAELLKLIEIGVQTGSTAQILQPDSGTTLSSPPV

`CCc1c(Br)c(=O)c(C(=O)Nc2cc(F)c(Oc3ccnc4cc(OC)c(OC)nc34)cc2F)cn1C` [Compound 63, 5-Bromo-N-[4-[(6,7-dimethoxy-1,5-naphthyridin-4-yl)oxy]-2,5-difluorophenyl]-6-ethyl-1-methyl-4-oxopyridine-3-carboxamide]: the IC50 on Human Mer was at most 100 nM; against Human KDR, over 300 nM; on Human Met, over 300 nM.
For the compound `CCc1c(Br)c(=O)c(C(=O)Nc2ccc(Oc3ccnc4cc(OCCOC)c(OC)nc34)cc2)cn1C` [Compound 64, 5-Bromo-6-ethyl-N-[4-[[6-methoxy-7-(2-methoxyethoxy)-1,5-naphthyridin-4-yl]oxy]phenyl]-1-methyl-4-oxopyridine-3-carboxamide], the IC50 was at most 100 nM against Human Mer, over 300 nM at Human KDR and over 300 nM on Human Met.
For the compound `COCCOc1cnc2c(Oc3ccc(NC(=O)c4c(C)n(C)c(C)c(C5=CCOCC5)c4=O)cc3F)ccnc2c1` [Compound 67, 5-(3,6-Dihydro-2H-pyran-4-yl)-N-[3-fluoro-4-[[7-(2-methoxyethoxy)-1,5-naphthyridin-4-yl]oxy]phenyl]-1,2,6-trimethyl-4-oxopyridine-3-carboxamide], the IC50 at Human Mer, on Human KDR and at Human Met was over 300 nM in each case.
For the compound `COc1cc2nccc(Oc3cc(F)c(NC(=O)c4c(C)nc(C)c(OC)c4O)cc3F)c2nc1OC` [Compound 68, N-[4-[(6,7-dimethoxy-1,5-naphthyridin-4-yl)oxy]-2,5-difluorophenyl]-4-hydroxy-5-methoxy-2,6-dimethylpyridine-3-carboxamide], the IC50 against Human Mer was over 300 nM; against Human KDR, at most 100 nM; on Human Met, over 300 nM.
On to `COc1cc2nccc(Oc3ccc(NC(=O)c4c5n(c(C)c(C6=CCCC6)c4=O)CCOC5)cc3F)c2nc1OC` [Compound 69, 7-(Cyclopenten-1-yl)-N-[4-[(6,7-dimethoxy-1,5-naphthyridin-4-yl)oxy]-3-fluorophenyl]-6-methyl-8-oxo-3,4-dihydro-1H-pyrido[2,1-c][1,4]oxazine-9-carboxamide], for which the IC50 on Human Mer, against Human KDR and on Human Met was at most 100 nM in each case.
Consider `COCCOc1cc2nccc(Oc3ccc(NC(=O)c4c(C)nc(C)c(OC)c4O)cc3F)c2nc1OC` [Compound 70, N-[3-Fluoro-4-[[6-methoxy-7-(2-methoxyethoxy)-1,5-naphthyridin-4-yl]oxy]phenyl]-4-hydroxy-5-methoxy-2,6-dimethylpyridine-3-carboxamide], for which the concentration for half-maximal inhibition (IC50) against Human Mer is over 300 nM; against Human KDR it was at most 100 nM; on Human Met, over 300 nM.
With `COCCOc1cc2nccc(Oc3ccc(NC(=O)c4c(C)nc(C)c(OC)c4O)cc3)c2nc1OC` [Compound 71, 4-Hydroxy-5-methoxy-N-[4-[[6-methoxy-7-(2-methoxyethoxy)-1,5-naphthyridin-4-yl]oxy]phenyl]-2,6-dimethylpyridine-3-carboxamide], the figures for the half-inhibitory concentration (IC50) on Human Mer, against Human KDR and at Human Met were over 300 nM, at most 100 nM and over 300 nM, respectively.
Turning to `COCCOc1cc2ncnc(Oc3ccc(NC(=O)c4c(C)nc(C)c(OC)c4O)cc3F)c2nc1OC` [Compound 72, N-[3-Fluoro-4-[6-methoxy-7-(2-methoxyethoxy)pyrido[3,2-d]pyrimidin-4-yl]oxyphenyl]-4-hydroxy-5-methoxy-2,6-dimethylpyridine-3-carboxamide], the concentration for half-maximal inhibition (IC50) against Human Mer was over 300 nM; against Human KDR it was at most 100 nM; at Human Met, over 300 nM.
`COc1cnc2c(Oc3ccc(NC(=O)c4c(C)n(C)c(C)c(OC)c4=O)cc3F)ccnc2c1` [Compound 75, N-[3-Fluoro-4-[(7-methoxy-1,5-naphthyridin-4-yl)oxy]phenyl]-5-methoxy-1,2,6-trimethyl-4-oxopyridine-3-carboxamide]: the IC50 against Human Mer, against Human KDR and at Human Met was over 300 nM each time.
For the compound `COc1cc2nccc(Oc3ccc(NC(=O)c4c(C)n(C)c(C)c(OC)c4=O)cc3)c2nc1OC` [Compound 76, N-[4-[(6,7-Dimethoxy-1,5-naphthyridin-4-yl)oxy]phenyl]-5-methoxy-1,2,6-trimethyl-4-oxopyridine-3-carboxamide], the IC50 against Human Mer, on Human KDR and at Human Met was over 300 nM throughout.
For the compound `COc1cc2nccc(Oc3ccc(NC(=O)c4c(C)n(C)c(C)c(OC)c4=O)cc3F)c2nc1OC` [Compound 77, N-[4-[(6,7-Dimethoxy-1,5-naphthyridin-4-yl)oxy]-3-fluorophenyl]-5-methoxy-1,2,6-trimethyl-4-oxopyridine-3-carboxamide], the IC50 against Human Mer, on Human KDR and at Human Met was over 300 nM throughout.
Turning to `COc1cc2nccc(Oc3ccc(NC(=O)c4c(C)n(C)c(C)c(C#N)c4=O)cc3F)c2nc1OC` [Compound 78, 5-Cyano-N-[4-[(6,7-dimethoxy-1,5-naphthyridin-4-yl)oxy]-3-fluorophenyl]-1,2,6-trimethyl-4-oxopyridine-3-carboxamide], the IC50 on Human Mer, against Human KDR and at Human Met was over 300 nM in each case.
